The source of these data is paper PMC4425204 (Bioorganic & medicinal chemistry letters, 2014).

This assay addresses FabB (Escherichia coli, UniProt P0A953). Put plainly: NMR wLOGSY assay to evaluate FabB binding. On the set-up: species or system E. coli.

Chain of FabB (P0A953 whole entry): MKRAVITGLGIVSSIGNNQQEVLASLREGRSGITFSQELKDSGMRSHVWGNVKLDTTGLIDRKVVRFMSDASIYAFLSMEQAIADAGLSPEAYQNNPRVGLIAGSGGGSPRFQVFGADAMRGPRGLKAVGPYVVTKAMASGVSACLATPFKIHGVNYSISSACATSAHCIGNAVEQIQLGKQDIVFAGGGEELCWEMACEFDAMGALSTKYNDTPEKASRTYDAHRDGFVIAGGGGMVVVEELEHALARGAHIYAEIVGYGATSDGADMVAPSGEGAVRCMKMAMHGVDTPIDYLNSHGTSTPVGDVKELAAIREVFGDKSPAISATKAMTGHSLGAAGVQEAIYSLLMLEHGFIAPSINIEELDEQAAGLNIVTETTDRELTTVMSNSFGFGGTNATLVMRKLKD

As for `O=c1oc2cc(Cl)ccc2n1CN(CC1CCOC1)C1CC1` (stereo not shown) [compound 1], the “FabB binding in NMR wLOGSY assay” value is “exhibited binding”.
